Results on seven compounds are retold here after article PMC8625051, “Wound Healing Metabolites from Peters’ Elephant-Nose Fish Oil: An In Vivo Investigation Supported by In Vitro and In Silico Studies” (Marine Drugs, 2021).

Common to all, as to assay type: biochemical
One assay has as its target T1, COX-1 (Ovis aries, UniProt P05979).
T1 construct: purchased Biovision
T1 sequence (P05979 25-600): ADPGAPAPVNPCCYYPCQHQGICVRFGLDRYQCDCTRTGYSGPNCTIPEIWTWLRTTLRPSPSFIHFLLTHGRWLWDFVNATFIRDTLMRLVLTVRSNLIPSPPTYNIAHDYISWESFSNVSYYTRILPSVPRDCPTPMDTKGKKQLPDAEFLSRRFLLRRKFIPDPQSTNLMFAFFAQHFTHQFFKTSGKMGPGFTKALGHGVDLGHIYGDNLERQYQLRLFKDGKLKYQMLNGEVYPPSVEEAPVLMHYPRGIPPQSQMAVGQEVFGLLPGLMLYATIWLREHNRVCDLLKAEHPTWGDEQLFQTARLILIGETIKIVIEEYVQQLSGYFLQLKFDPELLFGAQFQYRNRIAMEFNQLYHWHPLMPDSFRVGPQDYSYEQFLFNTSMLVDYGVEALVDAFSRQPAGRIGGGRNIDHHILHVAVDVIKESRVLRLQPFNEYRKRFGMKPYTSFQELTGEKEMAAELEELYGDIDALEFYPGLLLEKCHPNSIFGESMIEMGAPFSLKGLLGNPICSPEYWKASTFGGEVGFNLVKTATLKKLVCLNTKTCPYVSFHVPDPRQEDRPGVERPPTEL
In words: In vitro COX-1 inhibitory assay (fluorometric screening kit, Biovision). Here is the method:
(§1) The in vitro inhibitory assays of the isolated compounds against COX-1 and COX-2 were determined by using fluorometric-based screening kits (Biovision, Switzerland) according to the manufacturer’s protocol. These assays are based on the detection of the florescence produced by prostaglandin G2, i.e., the intermediate product produced by the COX-1 and -2 enzymes. The enzymes solutions were prepared by adding […] of dd. H2O to the lyophilized enzymes in the kit. The diluted COX cofactor was formulated by mixing the COX assay buffer (398 mL) and COX Cofactor (2 mL). 5 mL of arachidonic acid were added to 5 mL of NaOH and then diluted by 90 mL of double distilled H2O to produce dilute arachidonic acid/NaOH solution. Subsequently, all these prepared solutions were mixed to produce the reaction mixture ([…]). Different concentrations of the test compounds were added to the previous solution. The reaction mixtures were then incubated at 25 °C for 10 min. […] These assays of test compounds, blank, and reference inhibitors were carried out in triplicates. IC50 values were calculated by GraphPad software (version 7.0), where the percentage inhibitions were plotted versus the log concentrations. Dividing the IC50 calculated for […] by the IC50 calculated for […] was applied to determine the Selectivity index (SI).

The target of another assay is T2, COX-2 (Homo sapiens, UniProt P35354).
T2 construct: purchased Biovision
T2 sequence (P35354 18-604): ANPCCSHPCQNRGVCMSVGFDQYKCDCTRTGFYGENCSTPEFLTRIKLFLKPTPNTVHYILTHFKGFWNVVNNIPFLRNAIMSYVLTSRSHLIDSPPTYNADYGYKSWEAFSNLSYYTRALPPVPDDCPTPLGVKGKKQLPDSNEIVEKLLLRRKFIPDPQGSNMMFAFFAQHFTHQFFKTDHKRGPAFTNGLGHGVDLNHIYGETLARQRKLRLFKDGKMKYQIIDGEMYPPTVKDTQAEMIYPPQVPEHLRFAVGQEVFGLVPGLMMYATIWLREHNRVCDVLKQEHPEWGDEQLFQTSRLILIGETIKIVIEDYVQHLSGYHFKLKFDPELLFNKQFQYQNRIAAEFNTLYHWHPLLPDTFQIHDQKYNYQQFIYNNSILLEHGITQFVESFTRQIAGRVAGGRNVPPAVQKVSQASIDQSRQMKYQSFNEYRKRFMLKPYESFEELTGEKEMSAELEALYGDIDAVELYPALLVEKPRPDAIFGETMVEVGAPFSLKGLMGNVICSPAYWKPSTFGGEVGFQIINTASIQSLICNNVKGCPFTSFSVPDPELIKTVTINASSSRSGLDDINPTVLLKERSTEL
The assay is described as follows: In vitro COX-2 inhibitory assay (fluorometric screening kit, Biovision). Here is the method:
as §1

A short description of assay [1]: Hydrogen peroxide scavenging activity. On the procedure:
The residual H2O2 was determined colorimetrically. Briefly, 20 µL of the sample was added to 500 µL of H2O2 and incubated for 10 min., at 37 °C. […] The optical density of the colored product was measured at 510 nm using ascorbic acid as a positive control. The percentage of H2O2 scavenging activity was calculated by using the following formula (Equation (1)). (1) Scavenging activity=A control – A sample/A control×100 IC50 of each sample was determined at four different concentrations using Graph pad prism 7 software.

A short description of assay [2]: Superoxide radical scavenging activity. On the procedure: The superoxide anion scavenging activity was measured as previously performed by […] et al., 2007 [57]. […] The reaction was initiated by adding 0.1 mL PMS solution (0.12 mM) to the mixture, incubated at 25 °C for 5 min., and the optical density was measured at 560 nm, compared to the reference ascorbic acid. The percentage inhibition was calculated using the following formula, Equation (2). (2) Superoxide scavenging activity=A control - A sample/A control×100 IC50 was calculated using Graph pad prism 7 software by performing the test at four different concentrations.

Consider `CCCCCC/C=C\CCCCCCCC(=O)O` [Compound 1, palmitoleic acid], for which the IC50 against COX-1 and at COX-2 was more than 100 µM in each case.
`CCCCCCCCCCCCCCCC(=O)O` [Compound 2, palmitic acid]: the half-inhibitory concentration (IC50) against COX-1 and on COX-2 was more than 100 µM throughout.
Take `CCCCCCCC/C=C\CCCCCCCC(=O)O` [Compound 3, oleic acid]: the IC50 against COX-1 and against COX-2 was more than 100 µM each time.
For `CCCCCCC=CCC=CCC=CCC=CCCCCC(=O)O` [Compound 4, 6,9,12,15-docosatetraenoic acid], the results for the IC50 against COX-1 and at COX-2 were 18.5 ± 0.4 µM and 2.41 ± 0.2 µM, respectively. On COX-2 (selectivity index, ratio of IC50 values), the COX-2/COX-1 was 0.13.
As to `CC(C)CCC[C@@H](C)[C@H]1CC[C@H]2[C@@H]3CC=C4C[C@@H](O)CC[C@]4(C)[C@H]3CC[C@]12C` [Compound 5, cholesterol], the IC50 at COX-1 and on COX-2 was more than 100 µM each time.
For the compound `CCCCCCCCCCc1ccccc1O` [Compound 6, 2-decylphenol], the IC50 at COX-1 and against COX-2 was more than 100 µM throughout.
As to `O=C1O[C@H]([C@@H](O)CO)C(O)=C1O` [ascorbic acid], the “H2O2 scavenging IC50” value in assay [1] is 174.2 µg/mL. Besides, the “superoxide radical scavenging IC50” value in assay [2] amounted to 164 µg/mL.
